For 9 molecules, IC50 results are on record in patent publication US20240059703A1 (AMGEN INC., priority 2021, published 2024).

Broadly, the IC50 is the concentration at which inhibition is half-maximal.

In assay [1] the target is KRAS G12C (Homo sapiens (Human), UniProt P01116, C118A/G12C). Briefly: 2 h coupled exchange assay. The note with it: Avg 2 h Coupled exchange IC50, 2 h compound pre-incubation. In kind it is biochemical. The protocol: The term “2 h coupled exchange assay” or “20 h coupled exchange assay” as used herein refers to the assay described in the Section entitled “BIOLOGICAL EVALUATION.”

For assay [2], the system named is MIA PaCa-2 (human pancreatic carcinoma) cells. The experiment in a line: Cell Viability Assay (CellTiter-Glo), MIA PaCa-2. The assay is classed as cell-based. The protocol: Serially-diluted compound or DMSO was added to the cells, and plates were incubated at 37° C., 5% CO2 for 72 h. Cell viability was measured using a CellTiter-Glo® Luminescent Cell Viability Assay kit (Promega) according to the manufacturer's protocol. The luminescence signal of treated samples was normalized to DMSO control, and data were analyzed using a 4-parameter logistic model to calculate IC50 values.
On the technique in general: In ATP-based viability assays light output follows the ATP content of the culture.

Assay [3] has as its system A549 (human lung carcinoma) cells. The experiment in a line: Cell Viability Assay (CellTiter-Glo), A549. The assay is classed as cell-based. An outline of the steps:
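MIA PaCa-2 or A549 cells in RPMI 1640 with 10% FBS were seeded at 1.67E+04 cells/mL and incubated overnight. Serially diluted compound was then added for 72 h at 37° C, 5% CO2. Viability read by CellTiter-Glo luminescence, normalized to DMSO, with IC50 from a 4-parameter logistic fit.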

The mark [4] stands for this setting: SOS-mediated nucleotide exchange.

KRAS G12C, sequence (P01116 other isoform, or with tags, fused parts or gaps G12C/C118A): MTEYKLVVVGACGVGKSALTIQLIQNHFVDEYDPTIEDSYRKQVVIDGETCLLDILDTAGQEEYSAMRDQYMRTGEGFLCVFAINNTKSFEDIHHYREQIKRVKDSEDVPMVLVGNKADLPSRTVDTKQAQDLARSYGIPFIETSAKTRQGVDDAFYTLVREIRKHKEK

Turning to `C=CC(=O)N1CC2(CCN(c3nc4c(c(-c5c(C)ccc6cnn(C)c56)c3C)CCN(C3CCCN(C)C3)C4)C2)C1` [Example 18-20, 1-(6-(4-(1,6-dimethyl-1H-indazol-7-yl)-3-methyl-7-((3R)-1-methyl-3-piperidinyl)-5,6,7,8-tetrahydro-1,7-naphthyridin-2-yl)-2,6-diazaspiro[3.4]octan-2-yl)-2-propen-1-one|1-(6-(4-(1,6-dimethyl-1H-indazol-7-yl)-3-methyl-7-((3S)-1-methyl-3-piperidinyl)-5,6,7,8-tetrahydro-1,7-naphthyridin-2-yl)-2,6-diazaspiro[3.4]octan-2-yl)-2-propen-1-one], the IC50 in assay [1] was 374 nM; in assay [2] (Homo sapiens, MIA PaCa-2, 72 h) it was 135 nM; in assay [3] (Homo sapiens, A549, 72 h) it was above 25000 nM.

As to `C=CC(=O)N1CC2(CCN(c3nc4ccccc4c(-c4c(C)ccc5[nH]ncc45)c3C)[C@H]2C)C1` (single isomer, unassigned) [Example 2-57], the concentration for half-maximal inhibition (IC50) was 106 nM in assay [1] (setting [4]); 921 nM in assay [2] (Homo sapiens, MIA PaCa-2, 72 h); above 5000 nM in assay [3] (Homo sapiens, A549, 72 h).

For the molecule `C=CC(=O)N1CC2(CCN(c3nc4c(c(-c5c(C)ccc6[nH]ncc56)n3)CCC(C)C4)C2)C1` (stereo not drawn) [Example 1-11, 1-(6-((7)-7-methyl-4-(5-methyl-1H-indazol-4-yl)-5,6,7,8-tetrahydro-2-quinazolinyl)-2,6-diazaspiro[3.4]octan-2-yl)-2-propen-1-one], the concentration for half-maximal inhibition (IC50) in assay [1] (setting [4]) is 3090 nM; in assay [2] (Homo sapiens, MIA PaCa-2, 72 h), above 5000 nM; in assay [3] (Homo sapiens, A549, 72 h), above 5000 nM.

Turning to `C=CC(=O)N1CC2(CCN(c3nc(-c4c(C)ccc5[nH]ncc45)c4c(n3)N(C)CC4)C2)C1` [Example 5, 1-(6-(7-methyl-4-(5-methyl-1H-indazol-4-yl)-6,7-dihydro-5H-pyrrolo[2,3-d]pyrimidin-2-yl)-2,6-diazaspiro[3.4]octan-2-yl)prop-2-en-1-one], the half-maximal inhibitory concentration (IC50) is 181000 nM in assay [1] (setting [4]); 12900 nM in assay [2] (Homo sapiens, MIA PaCa-2, 72 h); above 25000 nM in assay [3] (Homo sapiens, A549, 72 h).

Take `C=CC(=O)N1CC2(CCN(c3nc4c(c(-c5cc(O)cc6ccccc56)c3C#N)COC(C)(C)C4)C2)C1` [Example 13-41, 4-(3-hydroxy-1-naphthalenyl)-7,7-dimethyl-2-(2-(2-propenoyl)-2,6-diazaspiro[3.4]octan-6-yl)-7,8-dihydro-5H-pyrano[4,3-b]pyridine-3-carbonitrile]: the IC50 in assay [1] (setting [4]) was 33 nM; in assay [2] (Homo sapiens, MIA PaCa-2, 72 h), 190 nM; in assay [3] (Homo sapiens, A549, 72 h), above 5000 nM.

`C=CC(=O)N1CC2(CCN(c3nc4c(c(-c5c(C)ccc6[nH]ncc56)n3)CCCC4)C2)C1` [Example 1-17, 1-(6-(4-(5-methyl-1H-indazol-4-yl)-5,6,7,8-tetrahydro-2-quinazolinyl)-2,6-diazaspiro[3.4]octan-2-yl)-2-propen-1-one]: the IC50 in assay [1] (setting [4]) was 5760 nM; in assay [2] (Homo sapiens, MIA PaCa-2, 72 h), above 5000 nM; in assay [3] (Homo sapiens, A549, 72 h) it was above 5000 nM.

As for `C=CC(=O)N1CC2(CCN(c3nc4c(c(-c5cccc(F)c5OC)c3C#N)CCC(c3scnc3C)=C4)C2)C1` [Example 23-53, 4-(3-fluoro-2-methoxyphenyl)-7-(4-methyl-1,3-thiazol-5-yl)-2-(2-(2-propenoyl)-2,6-diazaspiro[3.4]octan-6-yl)-5,6-dihydro-3-quinolinecarbonitrile], the IC50 in assay [1] is 391 nM; in assay [2] (Homo sapiens, MIA PaCa-2, 72 h) it was 1230 nM; in assay [3] (Homo sapiens, A549, 72 h), 8870 nM.

For `C=CC(=O)N1CC2(CCN(c3nc4c(c(-c5ccccc5C)c3C#N)CC[C@@H](c3scnc3C)C4)C2)C1` (single isomer, unassigned) [Example 23-5], the values for the IC50 in assay [1], in assay [2] (72 h) and in assay [3] (72 h) were 8 nM, 107 nM and 3800 nM, respectively.

As to `C=CC(=O)N1CC2(CCN(c3nc4c(c(-c5c(C)ccc6cnn(C)c56)c3C#N)CC(C)(C)C4)C2)C1` (single isomer, unassigned) [Example 13-18, (P)-4-(1,6-dimethyl-1H-indazol-7-yl)-6,6-dimethyl-2-(2-(2-propenoyl)-2,6-diazaspiro[3.4]octan-6-yl)-6,7-dihydro-5H-cyclopenta[b]pyridine-3-carbonitrile], the concentration for half-maximal inhibition (IC50) is 26 nM in assay [1] (setting [4]); 180 nM in assay [2] (Homo sapiens, MIA PaCa-2, 72 h); above 5000 nM in assay [3] (Homo sapiens, A549, 72 h).
